From patent US20130149311A1, “GFI1B MODULATION AND USES THEREOF” (INSTITUT DE RECHERCHES CLINIQUES DE MONTREAL, priority 2010, published 2013) come the findings set out here.

For the experiment, the system named is HSCs. The experiment is described as follows: N-Acetyl-Cystein (NAC) feeding of plpC-treated Gfi1b^fl/fl and MxCre tg Gfi1b^fl/fl mice; hematological compartments and HSC numbers by flow cytometry. Format: in vivo. The following applies: for Number of HSCs in BM NAC treatment / % Lin^− cells in BM NAC treatment / Number of BM cells × 10^6 NAC treatment / Number of HSCs in Spleen NAC treatment / Number of HSCs per 1 ml blood NAC treatment / Number of Lin^− cells × 10^6 NAC treatment / Number of splenocytes × 10^6 NAC treatment: plpC-treated, fed daily with N-Acetyl-Cystein, mean ± SEM. The procedure:
Treatment. MxCre tg Gfi1^fl/fl or Gfi1b^fl/fl mice were injected with polyinosinic-polycytidylic acid (plpC) (Sigma-Aldrich) at a dose of 500 μg per injection every other day for a total of 5 injections. As control, wt or Gfi1b^fl/fl mice not carrying the MxCre tg were injected with plpC. With regard to N-Acetyl-Cystein (Sigma-Aldrich, Mississagua) treatment, mice were fed every day with 500 μl N-Acety-Cystein (50 mg/ml)
Flow cytometry analysis, sorting of HSC and progenitors. HSCs and progenitors were analyzed with a LSR™, or Cyan flow cytometers and HSC were sorted with a MoFlo™ from adult mouse bone marrow as described previously (Kiel et al., 2005, supra; Adolfsson J et al., Cell 2005; 121:295-306). The BrdU experiments and the determination of cell cycle phases by Hoechst staining was done according to described procedures (Wilson et al., 2005, supra). Reactive oxygen species (ROS) were analyzed by staining HSCs with 5-(and-6)-carboxy-2′,7′-dichlorodihydrofluorescein diacetate (carboxy-H2DCFDA) (Invitrogen, Burlington, Canada) for 30 min at 37° C. After staining, cells were analyzed by flow cytometry for level of ROS in HSCs.
To verify whether loss of Gfi1b activates HSCs and that this activation leads to increased level of ROS which in turn could lead to an expansion of HSCs, mice were fed with N-Acetyl-Cystein (NAC), which counteracts the effects of ROS (Ito K, et al. Nat Med. April 2006; 12(4):446-451).
(In general: A flow cytometer gives signals particle by particle.)

[1] abbreviates: Gfi1b^fl/fl Mx-Cre tg (Gfi1b deficient) mice.
Where [2] appears, read: Gfi1b^fl/fl Mx-Cre tg vs Gfi1b^fl/fl, both NAC treated.

As for `CC(=O)N[C@@H](CS)C(=O)O` [NAC, N-Acetyl-Cystein], for the setting “Gfi1b^fl/fl (wt) mice, HSCs = Lin^−, Sca-1^+, Kit^+, CD150^+, CD48^−”, the “Number of HSCs in BM NAC treatment” value is given as 1700 ± 700,. Besides, under “Gfi1b^fl/fl (wt) mice”, the “% Lin^− cells in BM NAC treatment” value is recorded as 1.5 ± 0.1, %; the “Number of BM cells × 10^6 NAC treatment” value was 45 ± 4, × 10^6; the “Number of HSCs in Spleen NAC treatment” value was 197 ± 77,; the “Number of HSCs per 1 ml blood NAC treatment” value is recorded as 11 ± 1, per 1 ml blood. Further, under “Gfi1b^fl/fl (wt) mice”, the “Number of Lin^− cells × 10^6 NAC treatment” value is 0.8 ± 0.1, × 10^6 and the “Number of splenocytes × 10^6 NAC treatment” value is reported as 86 ± 22, × 10^6. Further, under setting [1], the “% Lin^− cells in BM NAC treatment” value is 2.45 ± 0.5, %; the “Number of BM cells × 10^6 NAC treatment” value is given as 44 ± 2, × 10^6; the “Number of HSCs in BM NAC treatment” value was 5700 ± 1100,; the “Number of HSCs in Spleen NAC treatment” value is reported as 6000 ± 2000,. Also, under setting [1], the “Number of HSCs per 1 ml blood NAC treatment” value was 307 ± 100, per 1 ml blood; the “Number of Lin^− cells × 10^6 NAC treatment” value is 1.1 ± 0.4, × 10^6; the “Number of splenocytes × 10^6 NAC treatment” value is reported as 104 ± 22, × 10^6. In addition, under setting [2], the “% Lin^− cells in BM NAC treatment, fold change” value came out at 1.6; the “Number of BM cells NAC treatment, fold change” value came to 1; the “Number of HSCs in BM NAC treatment, fold change” value worked out at 3; the “Number of HSCs in Spleen NAC treatment, fold change” value is listed as 30. Moreover, under setting [2], the “Number of HSCs per 1 ml blood NAC treatment, fold change” value came to 28; the “Number of Lin^− cells NAC treatment, fold change” value was 1.4; the “Number of splenocytes NAC treatment, fold change” value is listed as 1.2. Moreover, the “Effect on expansion of Gfi1b^ko/ko HSCs (frequencies and absolute numbers)” value (bone marrow, spleen and peripheral blood, NAC-treated vs untreated Gfi1b-deficient mice) is “significantly limited the expansion”.
